Test [1] is described as follows: Inhibition of 5'-UUCACGGAGAA[flc] mRNA binding to biotinylated His6-tagged Yersinia pseudotuberculosis CsrA measured by fluorescence polarization assay. A general note: In fluorescence polarisation assays a small probe gives low polarisation when free and higher when bound to something large.
Test [2] has as its target Carbon storage regulator (Escherichia coli, UniProt P69913). The test is described as follows: Inhibition of 5'-AGACAAGGAUGU[flc] mRNA binding to biotinylated His6-tagged Escherichia coli CsrA measured by fluorescence polarization assay.
The nature of test [3]: Inhibition of 5'-UUCACGGAGAA[flc] mRNA binding to biotinylated His6-tagged Yersinia pseudotuberculosis CsrA measured in presence of 5 mM DTT by fluorescence polarization assay.
Test [4] can be described thus: Binding affinity towards biotinylated His6-tagged Yersinia pseudotuberculosis CsrA measured by Microscale thermophoresis assay (MST).

These results are taken from ChEMBL document CHEMBL5131479, “Phage display-based discovery of cyclic peptides against the broad spectrum bacterial anti-virulence target CsrA” (Eur J Med Chem, 2022).

One may read the IC50 as the concentration needed to halve the response being measured. For orientation: Kd means the constant that tells how readily two partners part at equilibrium. Higher therefore signals weaker binding.

Where a SMILES comes first, the peptide text is derived from it. Bridges are numbered along the chain shown (N, C = ends). Triazole bridges read from a SMILES are 1,4-linked. [ ]: non-standard residue; d: D form. Ala(indol-2-yl) = N[C@@H](Cc1cc2ccccc2[nH]1)C(=O)O; Dap(N3) = [N-]=[N+]=NC[C@H](N)C(=O)O; Aha = [N-]=[N+]=NCC[C@H](N)C(=O)O; Pra = C#CC[C@H](N)C(=O)O

Sequence of Carbon storage regulator (P69913 whole entry): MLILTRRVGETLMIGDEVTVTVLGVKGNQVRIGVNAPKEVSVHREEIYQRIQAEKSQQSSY

For `CC(=O)N[C@H](C(=O)N[C@H]1CCn2nncc2C[C@@H](C(=O)N[C@@H](Cc2c[nH]c3ccccc23)C(N)=O)NC(=O)[C@H](CC(C)C)NC(=O)[C@H](CCC(=O)O)NC(=O)[C@H](CO)NC1=O)C(C)C`, the figures for the IC50 in test [1] and in test [2] were 309 µM and 83.4 µM, respectively.

As to `CC(=O)N[C@H](C(=O)N[C@H]1Cc2cnnn2CC[C@@H](C(=O)N[C@@H](Cc2c[nH]c3ccccc23)C(N)=O)NC(=O)[C@H](CC(C)C)NC(=O)[C@H](CCC(=O)O)NC(=O)[C@H](CO)NC1=O)C(C)C`, the IC50 in test [1] turned out to be 337 µM; in test [2], 51.6 µM.

`CC[C@H](C)[C@H](NC(=O)[C@H]1CCCCN1C)C(=O)N[C@H](CCc1nc(C(=O)N[C@@H](Cc2ccc(O)cc2)C[C@H](C)C(=O)O)cs1)C(C)C` returned an IC50 in test [1] of 11 µM.

Turning to `CC(=O)N[C@H](C(=O)N[C@H]1Cc2cnnn2C[C@@H](C(=O)N[C@@H](Cc2c[nH]c3ccccc23)C(N)=O)NC(=O)[C@H](CC(C)C)NC(=O)[C@H](CCC(=O)O)NC(=O)[C@H](CO)NC1=O)C(C)C`, the values for the IC50 in test [1] and in test [2] were 178 µM and 48.1 µM, respectively.

For `CC(=O)N[C@@H](C)C(=O)N[C@H]1CSSC[C@@H](C(=O)N[C@@H](Cc2cc3ccccc3[nH]2)C(N)=O)NC(=O)[C@H](CC(C)C)NC(=O)[C@H](CCC(=O)O)NC(=O)[C@H](CO)NC1=O` (Ac-ACSELC[Ala(indol-2-yl)]-NH2; disulfide 2-6), the IC50 in test [1] amounted to 114 µM.

In turn, `CC(=O)N[C@H]1CSSC[C@@H](C(=O)N[C@@H](Cc2cc3ccccc3[nH]2)C(N)=O)NC(=O)[C@H](CC(C)C)NC(=O)[C@H](CCC(=O)O)NC(=O)[C@H](CO)NC1=O` (Ac-CSELC[Ala(indol-2-yl)]-NH2; disulfide 1-5) gave an IC50 in test [1] of 128 µM.

For `CC(=O)N[C@H](C(=O)N[C@H]1CSSC[C@@H](C(=O)N[C@@H](Cc2cc3ccccc3[nH]2)C(N)=O)NC(=O)[C@H](CC(C)C)NC(=O)[C@H](CCC(=O)O)NC(=O)[C@H](C)NC1=O)C(C)C` (Ac-VCAELC[Ala(indol-2-yl)]-NH2; disulfide 2-6), the IC50 in test [1] was greater than 1000 µM.

Molecule `CC(=O)N[C@H](C(=O)N[C@H]1CSSC[C@@H](C(=O)N[C@@H](Cc2cc3ccccc3[nH]2)C(N)=O)NC(=O)[C@H](CC(C)C)NC(=O)[C@H](C)NC(=O)[C@H](CO)NC1=O)C(C)C` (Ac-VCSALC[Ala(indol-2-yl)]-NH2; disulfide 2-6) had an IC50 in test [1] of 22.8 µM.

In test [1], `CC(=O)N[C@H](C(=O)N[C@H]1CSSC[C@@H](C(=O)N[C@@H](Cc2cc3ccccc3[nH]2)C(N)=O)NC(=O)[C@H](C)NC(=O)[C@H](CCC(=O)O)NC(=O)[C@H](CO)NC1=O)C(C)C` (Ac-VCSEAC[Ala(indol-2-yl)]-NH2; disulfide 2-6) displayed an IC50 of 57.9 µM.

Turning to `CC(=O)N[C@H](C(=O)N[C@H]1CSSC[C@@H](C(N)=O)NC(=O)[C@H](CC(C)C)NC(=O)[C@H](CCC(=O)O)NC(=O)[C@H](CO)NC1=O)C(C)C` (Ac-VCSELC-NH2; disulfide 2-6), the IC50 in test [1] was greater than 1000 µM.

For `CC(=O)N[C@H](C(=O)N[C@H]1CSSC[C@@H](C(=O)N[C@@H](C)C(N)=O)NC(=O)[C@H](CC(C)C)NC(=O)[C@H](CCC(=O)O)NC(=O)[C@H](CO)NC1=O)C(C)C` (Ac-VCSELCA-NH2; disulfide 2-6), in test [1], the IC50 was greater than 500 µM.

For `CC(=O)N[C@H](C(=O)N[C@H]1CSSC[C@@H](C(=O)N[C@@H](Cc2cc3ccccc3[nH]2)C(N)=O)NC(=O)[C@H](CC(C)C)NC(=O)[C@H](CCC(=O)O)NC(=O)[C@H](CO)NC1=O)C(C)C` (Ac-VCSELC[Ala(indol-2-yl)]-NH2; disulfide 2-6), the IC50 is greater than 1 mM in test [3], 6.9 µM in test [1] and 182 µM in test [2]. Binding in test [4] was put at a Kd of 10.5 µM.

As to `CC(=O)N[C@H](C(=O)N[C@H]1CSSC[C@@H](C(=O)N[C@@H](Cc2cc3ccccc3[nH]2)C(=O)O)NC(=O)[C@H](CC(C)C)NC(=O)[C@H](CCC(=O)O)NC(=O)[C@H](CO)NC1=O)C(C)C` (Ac-VCSELC[Ala(indol-2-yl)]-OH; disulfide 2-6), in test [1], the IC50 was 17.4 µM.

On to `CC(=O)N[C@H](C(=O)N[C@H]1Cn2cc(nn2)C[C@@H](C(=O)N[C@@H](Cc2c[nH]c3ccccc23)C(N)=O)NC(=O)[C@H](CC(C)C)NC(=O)[C@H](CCC(=O)O)NC(=O)[C@H](CO)NC1=O)C(C)C` (Ac-V[Dap(N3)]SEL[Pra]W-NH2; triazole 2-6), for which the values for the IC50 in test [1] and in test [2] were 92.8 µM and 6.8 µM, respectively.

In the case of `CC(=O)N[C@H](C(=O)N[C@H]1Cc2cn(nn2)CC[C@@H](C(=O)N[C@@H](Cc2c[nH]c3ccccc23)C(N)=O)NC(=O)[C@H](CC(C)C)NC(=O)[C@H](CCC(=O)O)NC(=O)[C@H](CO)NC1=O)C(C)C` (Ac-V[Pra]SEL[Aha]W-NH2; triazole 2-6), the figures for the IC50 in test [1] and in test [2] were 76 µM and 3.4 µM, respectively.

Regarding `CC(=O)N[C@H](C(=O)N[C@H]1Cc2cn(nn2)C[C@@H](C(=O)N[C@@H](Cc2c[nH]c3ccccc23)C(N)=O)NC(=O)[C@H](CC(C)C)NC(=O)[C@H](CCC(=O)O)NC(=O)[C@H](CO)NC1=O)C(C)C` (Ac-V[Pra]SEL[Dap(N3)]W-NH2; triazole 2-6), the IC50 was 35.3 µM in test [1] and 4.9 µM in test [2].

The molecule `CC(C)C[C@@H]1NC(=O)[C@H](CCC(=O)O)NC(=O)[C@H](CO)NC(=O)[C@@H](NC(=O)[C@@H](N)C(C)C)CSSC[C@@H](C(=O)N[C@@H](Cc2cc3ccccc3[nH]2)C(N)=O)NC1=O` (H-VCSELC[Ala(indol-2-yl)]-NH2; disulfide 2-6) came in with an IC50 in test [1] of 27.6 µM.

In test [1], Ac-VASELAW-NH2 registered an IC50 greater than 1000 µM.
